≈ marks a conversion by molar mass, not a printed value.
Key:
[1] = organism: Oryctolagus cuniculus; experiment: Compound was tested for the in vitro smooth muscle contractile activity; assay type: functional; conditions: Muscle tissue
[2] = system: Canis familiaris; experiment: Motor index (MI) was reported in vivo for smooth muscle contractile activity after i.v. administration of the compound; assay type: functional, Canis lupus familiaris, Muscle tissue
[3] = target: T1, Motilin receptor (Homo sapiens, UniProt O43193); experiment: Compound was tested for in vitro motilin receptor binding affinity
[4] = target: T1, Motilin receptor; experiment: Compound was tested for in vitro motilin receptor binding affinity after treatment with hydrochloric acid solution (pH 2.5)
[5] = system: Staphylococcus aureus; experiment: Tested for the minimum inhibitory concentration by agar dilution method against Staphylococcus aureus 209P; assay type: functional
[6] = system: Bacillus subtilis; experiment: Compound was tested for the minimum inhibitory concentration by agar dilution method against Bacillus subtilis ATCC 6633; assay type: functional
[7] = system: Klebsiella pneumoniae; experiment: Tested for the minimum inhibitory concentration by agar dilution method against Klebsiella pneumoniae IFO 3512; assay type: functional
[8] = system: Escherichia coli; experiment: Tested for the minimum inhibitory concentration by agar dilution method against Escherichia coli NIHJ JC-2; assay type: functional
[9] = system: Streptococcus pneumoniae; experiment: Tested for the minimum inhibitory concentration by agar dilution method against Streptococcus pneumoniae No. 12; assay type: functional
[10] = system: Canis familiaris; experiment: Motor index (MI) was reported in vivo for smooth muscle contractile activity after i.g. administration of the compound; assay type: functional, Canis lupus familiaris, Muscle tissue

T1 sequence (O43193 whole entry): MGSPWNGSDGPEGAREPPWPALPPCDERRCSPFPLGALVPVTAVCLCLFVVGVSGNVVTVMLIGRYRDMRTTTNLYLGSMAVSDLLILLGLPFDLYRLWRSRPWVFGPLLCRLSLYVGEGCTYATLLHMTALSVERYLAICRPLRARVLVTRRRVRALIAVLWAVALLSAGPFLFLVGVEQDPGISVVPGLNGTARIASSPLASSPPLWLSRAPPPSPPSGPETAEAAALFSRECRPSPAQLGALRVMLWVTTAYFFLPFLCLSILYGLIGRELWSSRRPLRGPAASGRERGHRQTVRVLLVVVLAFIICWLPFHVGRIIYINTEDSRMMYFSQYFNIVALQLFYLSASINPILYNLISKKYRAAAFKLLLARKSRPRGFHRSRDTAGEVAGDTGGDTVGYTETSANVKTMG

SMILES	EC50 [1]	IC50 [3]	IC50 [4]	MIC [5]	MIC [6]	MIC [7]	MIC [8]	MIC [9]	MI100 [2]	MI100 [10]
CCC1OC(=O)C(C)C(O[C@H]2C[C@@](C)(OC)[C@@H](O)C(C)O2)C(C)[C@@H](OC2OC(C)CC(N(C)C)[C@H]2O)[C@]2(C)CC(C)C3(O[C@]1(C)[C@H](O)[C@H]3C)O2 (stereo not given in full)	> 10000 nM	155 nM	170 nM	–	–	–	–	–	>70 µg/kg	–
CCC1OC(=O)C(C)C(O[C@H]2C[C@@](C)(OC)[C@@H](O)C(C)O2)C(C)[C@@H](OC2OC(C)CC(N(C)C)[C@H]2O)[C@]2(C)CC(C)=C(O2)[C@H](C)[C@@H](O)[C@]1(C)OC (stereo not given in full)	19.5 nM	7.59 nM	39.8 nM	25 µM (≈ 18.2 µg/mL)	6.3 µM (≈ 4.6 µg/mL)	200 µM (≈ 146 µg/mL)	> 200 µM	1.6 µM (≈ 1.17 µg/mL)	–	–
CCC1OC(=O)C(C)C(O[C@H]2C[C@@](C)(OC)[C@@H](O)C(C)O2)C(C)[C@@H](OC2OC(C)CC(N(C)C(C)C)[C@H]2O)[C@]2(C)CC(C)=C(O2)[C@H](C)[C@@H](O)[C@]1(C)OC (stereo not given in full)	12.9 nM	6.92 nM	15.1 nM	> 200 µM	> 200 µM	> 200 µM	> 200 µM	200 µM (≈ 152 µg/mL)	0.44 µg/kg	1.2 µg/kg

Now from value to compound, other results behind:

EC50 [1]	IC50 [3]	IC50 [4]	MIC [5]	MIC [6]	MIC [7]	MIC [8]	MIC [9]	SMILES	MI100 [2]	MI100 [10]
316 nM	–	–	0.39 µM (≈ 0.286 µg/mL)	0.39 µM (≈ 0.286 µg/mL)	6.3 µM (≈ 4.62 µg/mL)	100 µM (≈ 73.4 µg/mL)	0.1 µM (≈ 0.0734 µg/mL)	CC[C@H]1OC(=O)[C@H](C)[C@@H](O[C@H]2C[C@@](C)(OC)[C@@H](O)[C@H](C)O2)[C@H](C)[C@@H](OC2O[C@H](C)C[C@H](N(C)C)[C@H]2O)C(C)(O)C[C@@H](C)C(=O)[C@H](C)[C@@H](O)[C@]1(C)O (single isomer, unassigned) [ERYTHROMYCIN]	32.3 µg/kg	–
22.9 nM	4.68 nM	8.32 nM	> 200 µM	> 200 µM	> 200 µM	> 200 µM	50 µM (≈ 37.2 µg/mL)	CCC1OC(=O)C(C)C(O[C@H]2C[C@@](C)(OC)[C@@H](O)C(C)O2)C(C)[C@@H](OC2OC(C)CC(N(C)CC)[C@H]2O)[C@]2(C)CC(C)=C(O2)[C@H](C)[C@@H](O)[C@]1(C)OC (stereo not given in full)	–	–
–	3.39 nM	224 nM	–	–	–	–	–	CC[C@H]1OC(=O)[C@H](C)[C@@H](O[C@H]2C[C@@](C)(OC)[C@@H](O)[C@H](C)O2)[C@H](C)[C@@H](OC2O[C@H](C)C[C@H](N(C)C)[C@H]2O)C2(C)CC(C)=C(O2)[C@H](C)[C@@H](O)[C@]1(C)O (single isomer, unassigned)	1 µg/kg	–

— ChEMBL document CHEMBL1150985, “Macrolide-type motilin receptor agonists: Acid-stable 12-O-methyl-8,9-anhydroerythromycin A 6,9-hemiacetals” (Bioorg Med Chem Lett, 1995)
